Results reported in patent publication US7276502B2, “Thiazoles useful as inhibitors of protein kinases” (Vertex Pharmaceuticals Incorporated, priority 2003, dated 2007).
Like-named read-outs stand apart in the source and are kept apart here.

Assays:
[1] = target: T1, ZAP-70 (Homo sapiens, UniProt P43403); experiment: ZAP-70 inhibition assay (standard coupled enzyme assay); type: biochemical; conditions: 100 μM ATP, 20 μM poly-4EY peptide, 30° C., 60 nM ZAP-70
T1 sequence (P43403 1-619): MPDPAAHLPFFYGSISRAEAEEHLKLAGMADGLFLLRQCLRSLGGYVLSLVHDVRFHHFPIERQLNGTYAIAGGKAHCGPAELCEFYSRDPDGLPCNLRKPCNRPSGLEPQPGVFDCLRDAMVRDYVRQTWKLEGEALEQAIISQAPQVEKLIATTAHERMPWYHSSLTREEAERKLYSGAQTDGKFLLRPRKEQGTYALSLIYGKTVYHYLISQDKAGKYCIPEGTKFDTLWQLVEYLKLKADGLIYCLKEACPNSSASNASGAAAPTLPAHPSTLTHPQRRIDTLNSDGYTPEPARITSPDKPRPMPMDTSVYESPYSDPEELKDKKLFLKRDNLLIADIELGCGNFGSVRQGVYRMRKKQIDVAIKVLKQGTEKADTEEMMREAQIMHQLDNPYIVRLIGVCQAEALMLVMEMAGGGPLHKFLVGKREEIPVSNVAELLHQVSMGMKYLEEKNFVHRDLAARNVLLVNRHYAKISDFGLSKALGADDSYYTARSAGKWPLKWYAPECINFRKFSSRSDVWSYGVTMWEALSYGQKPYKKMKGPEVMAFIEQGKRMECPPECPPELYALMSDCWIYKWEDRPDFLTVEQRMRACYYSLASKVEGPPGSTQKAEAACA
Method: Compounds were screened for their ability to inhibit ZAP-70 using a standard coupled enzyme assay (Fox et al., Protein Sci. 1998, 7, 2249). Assays were carried out in a mixture of 100 mM HEPES (pH 7.5), 10 mM MgCl2, 25 mM NaCl, 2 mM DTT and 3% DMSO. Final substrate concentrations in the assay were 100 μM ATP (Sigma Chemicals) and 20 μM peptide (poly-4EY, Sigma Chemicals). Assays were carried out at 30° C. and 60 nM ZAP-70. Final concentrations of the components of the coupled enzyme system were 2.5 mM phosphoenolpyruvate, 300 μM NADH, 30 μg/ml pyruvate kinase and 10 μg/ml lactate dehydrogenase.
An assay stock buffer solution was prepared containing all of the reagents listed above, with the exception of ZAP-70 and the test compound of interest of the present invention. 55 μl of the stock solution was placed in a 96 well plate followed by addition of 2 μl of DMSO stock containing serial dilutions of the test compound of the present invention (typically starting from a final concentration of 15 μM). The plate was preincubated for 10 minutes at 30° C. and the reaction initiated by addition of 10 μl of enzyme (final concentration 60 nM). Initial reaction rates were determined with a Molecular Devices SpectraMax Plus plate reader over a 15 minute time course. Ki data was calculated from non-linear regression analysis using the Prism software package (GraphPad Prism version 3.0a for Macintosh, GraphPad Software, San Diego Calif., USA).

[2] = target: SYK (Homo sapiens, UniProt P43405); experiment: SYK inhibition assay (standard coupled enzyme assay); type: biochemical
Method: Reactions were carried out in 100 mM HEPES (pH 7.5), 10 mM MgCl2, 25 mM NaCl, 1 mM DTT and 1.5% DMSO. Final substrate concentrations in the assay were 200 μM ATP (Sigma chemical Co.) and 4 μM poly Gly-Tyr peptide (Sigma Chemical Co.). Assays were carried out at 30° C. and 200 nM SYK. Final concentrations of the components of the coupled enzyme system were 2.5 mM phosphoenolpyruvate, 300 μM NADH, 30 μg/ml pyruvate kinase and 10 μg/ml lactate dehydrogenase.
An assay stock buffer solution was prepared containing all of the reagents listed above, with the exception of SYK, DTT, and the test compound of interest of the present invention. 56 μl of the test reaction was placed in a 96 well plate followed by the addition of 1 μl of 2 mM DMSO stock containing the test compound of the present invnetion (final compound concentration 30 μM).

[3] = coupled enzyme assay, 200 μM ATP, 4 μM poly Gly-Tyr peptide, 30° C., read-out: Ki (SYK)

Ki [1] | Ki [2, 3] | Ki [2] | SMILES
≤ 5 µM | ≤ 5 µM | – | Cc1cnc(-c2ccnc(Nc3ccc4[nH]c(C(F)(F)F)nc4c3)n2)s1 [Example I-1]
≤ 5 µM | ≤ 5 µM | – | COc1ccc(Nc2nccc(-c3ncc(C)s3)n2)cc1OC [Example I-2]
≤ 5 µM | ≤ 5 µM | – | Cc1cnc(-c2ccnc(Nc3ccc4c(c3)OCCCO4)n2)s1 [Example I-4]
≤ 5 µM | ≤ 5 µM | – | COc1ccc(Nc2nccc(-c3ncc(C)s3)n2)cc1F [Example I-5]
≤ 5 µM | ≤ 5 µM | – | Cc1cnc(-c2ccnc(Nc3cccc(S(=O)(=O)c4cccc(N)c4)c3)n2)s1 [Example I-6]
≤ 5 µM | ≤ 5 µM | – | Cc1cnc(-c2ccnc(Nc3ccc(N4CCN(Cc5ccccc5)CC4)cc3)n2)s1 [Example I-7]
≤ 5 µM | ≤ 5 µM | – | Cc1cnc(-c2ccnc(Nc3ccc(C)c(Br)c3)n2)s1 [Example I-8]
≤ 5 µM | ≤ 5 µM | – | Cc1cnc(-c2ccnc(Nc3ccc4cn[nH]c4c3)n2)s1 [Example I-9]
≤ 5 µM | ≤ 5 µM | – | CCN(CC)Cc1cc(Nc2nccc(-c3ncc(C)s3)n2)ccc1O [Example I-10]
≤ 5 µM | ≤ 5 µM | – | Cc1cnc(-c2ccnc(Nc3ccc(Nc4ccccc4)cc3)n2)s1 [Example I-12]
≤ 5 µM | ≤ 5 µM | – | CCOc1ccc(Nc2nccc(-c3ncc(C)s3)n2)cc1 [Example I-14]
≤ 5 µM | ≤ 5 µM | – | Cc1cnc(-c2ccnc(Nc3cccc(C(N)=O)c3)n2)s1 [Example I-15]
≤ 5 µM | ≤ 5 µM | – | COc1ccc(Nc2nccc(-c3ncc(C)s3)n2)cc1-c1ccccc1 [Example I-16]
≤ 5 µM | ≤ 5 µM | – | COc1ccc(Nc2nccc(-c3ncc(C)s3)n2)cc1O [Example I-17]
≤ 5 µM | ≤ 5 µM | – | Cc1cc2cc(Nc3nccc(-c4ncc(C)s4)n3)ccc2[nH]1 [Example I-18]
≤ 5 µM | ≤ 5 µM | – | COc1cc(Nc2nccc(-c3ncc(C)s3)n2)ccc1-c1ccccc1 [Example I-19]
≤ 5 µM | ≤ 5 µM | – | Cc1cnc(-c2ccnc(Nc3ccc4c(c3)CCN4S(C)(=O)=O)n2)s1 [Example I-20]
≤ 5 µM | ≤ 5 µM | – | COCc1cc(=O)oc2cc(Nc3nccc(-c4ncc(C)s4)n3)ccc12 [Example I-22]
≤ 5 µM | ≤ 5 µM | – | Cc1cnc(-c2ccnc(Nc3ccc(-n4cncn4)cc3)n2)s1 [Example I-23]

Ki [1] | Ki [2, 3] | Ki [2] | SMILES
≤ 5 µM | ≤ 5 µM | – | CCn1c2ccccc2c2cc(Nc3nccc(-c4ncc(C)s4)n3)ccc21 [Example I-26]
≤ 5 µM | ≤ 5 µM | – | COc1cccc(Nc2nccc(-c3ncc(C)s3)n2)c1 [Example I-27]
≤ 5 µM | ≤ 5 µM | – | COc1ccc(Nc2nccc(-c3ncc(C)s3)n2)cc1 [Example I-28]
≤ 5 µM | ≤ 5 µM | – | Cc1cnc(-c2ccnc(Nc3ccc(Cl)c(C)c3)n2)s1 [Example I-29]
≤ 5 µM | ≤ 5 µM | – | CC(=O)c1cccc(Nc2nccc(-c3ncc(C)s3)n2)c1 [Example I-30]
≤ 5 µM | ≤ 5 µM | – | Cc1cnc(-c2ccnc(Nc3ccc4[nH]ccc4c3)n2)s1 [Example I-31]
≤ 5 µM | ≤ 5 µM | – | Cc1cnc(-c2ccnc(Nc3cccc(N)c3)n2)s1 [Example I-32]
≤ 5 µM | ≤ 5 µM | – | Cc1cnc(-c2ccnc(Nc3ccc4c(C)cc(=O)oc4c3)n2)s1 [Example I-34]
≤ 5 µM | ≤ 5 µM | – | CC(=O)Nc1ccc(Nc2nccc(-c3ncc(C)s3)n2)cc1C [Example I-35]
≤ 5 µM | ≤ 5 µM | – | Cc1cnc(-c2ccnc(Nc3ccc4c(c3)CC(=O)N4)n2)s1 [Example I-36]
≤ 5 µM | ≤ 5 µM | – | Cc1cnc(-c2ccnc(Nc3cccc(OCc4ccccc4)c3)n2)s1 [Example I-37]
≤ 5 µM | ≤ 5 µM | – | Cc1cnc(-c2ccnc(Nc3cccc(CC#N)c3)n2)s1 [Example I-38]
≤ 5 µM | – | ≤ 5 µM | Cc1cc(C)cc(Nc2nccc(-c3ncc(C)s3)n2)c1 [Example I-41]
≤ 5 µM | ≤ 5 µM | – | Cc1cc(C)cc(Nc2nccc(-c3nc(Br)cs3)n2)c1 [Example I-42]
≤ 5 µM | – | ≤ 5 µM | Cc1cc(C)cc(Nc2nccc(-c3ncc(CO)s3)n2)c1 [Example I-43]
≤ 5 µM | ≤ 5 µM | – | Cc1cc(C)cc(Nc2nccc(-c3ncc(CN(C)C)s3)n2)c1 [Example I-44]
≤ 5 µM | ≤ 5 µM | – | CCN(CC)CCCNCc1cnc(-c2ccnc(Nc3cc(C)cc(C)c3)n2)s1 [Example I-45]
≤ 5 µM | ≤ 5 µM | – | Cc1cc(C)cc(Nc2nccc(-c3ncc(CN4CCCCC4)s3)n2)c1 [Example I-46]
≤ 5 µM | ≤ 5 µM | – | CCN1CCN(Cc2cnc(-c3ccnc(Nc4cc(C)cc(C)c4)n3)s2)CC1 [Example I-47]

Ki [1] | Ki [2, 3] | Ki [2] | SMILES
≤ 5 µM | ≤ 5 µM | – | Cc1cc(C)cc(Nc2nccc(-c3ncc(CN4CCOCC4)s3)n2)c1 [Example I-48]
≤ 5 µM | ≤ 5 µM | – | Cc1cnc(-c2ccnc(Nc3ccccc3)n2)s1 [Example I-49]
≤ 5 µM | ≤ 5 µM | – | Cc1cnc(-c2ccnc(Nc3ccc4c(c3)CCC4)n2)s1 [Example I-50]
≤ 5 µM | ≤ 5 µM | – | Cc1cnc(-c2ccnc(Nc3cc(Cl)cc(Cl)c3)n2)s1 [Example I-51]
– | ≤ 5 µM | – | Cc1cc(C)cc(Nc2nccc(-c3nc(CN4CCC(O)C4)cs3)n2)c1 (centres unmarked) [Example I-58]
≤ 5 µM | ≤ 5 µM | – | Cc1cc(C)cc(Nc2nccc(-c3nc4ccccc4s3)n2)c1 [Example I-63]
≤ 5 µM | ≤ 5 µM | – | Cc1cc(C)cc(Nc2nccc(-c3nc(CBr)cs3)n2)c1 [Example I-64]
≤ 5 µM | ≤ 5 µM | – | COCc1csc(-c2ccnc(Nc3cc(C)cc(C)c3)n2)n1 [Example I-66]
– | ≤ 5 µM | – | Cc1cc(C)cc(Nc2nccc(-c3nc(CNCC(=O)OC(C)(C)C)cs3)n2)c1 [Example I-67]
≤ 5 µM | ≤ 5 µM | – | Cc1cc(C)cc(Nc2nccc(-c3nc(C)c(C)s3)n2)c1 [Example I-70]
≤ 5 µM | ≤ 5 µM | – | Cc1cc(C)cc(Nc2nccc(-c3ncc(Br)s3)n2)c1 [Example I-71]
≤ 5 µM | ≤ 5 µM | – | CC(=O)OCc1cnc(-c2ccnc(Nc3cc(C)cc(C)c3)n2)s1 [Example I-72]
≤ 5 µM | ≤ 5 µM | – | OCc1csc(-c2ccnc(Nc3cccc(OCc4ccccc4)c3)n2)n1 [Example I-73]
≤ 5 µM | ≤ 5 µM | – | Cc1cc(C)cc(Nc2nccc(-c3ncc(N4CCCCC4)s3)n2)c1 [Example I-74]
≤ 5 µM | ≤ 5 µM | – | CCc1cnc(-c2ccnc(Nc3cc(C)cc(C)c3)n2)s1 [Example I-75]
≤ 5 µM | ≤ 5 µM | – | Cc1cc(C)cc(Nc2nccc(-c3nc(CN)cs3)n2)c1 [Example I-76]
– | ≤ 5 µM | – | Cc1cnc(-c2ccnc(Nc3ccc4c(c3)C(=O)OC4)n2)s1 [Example I-126]
– | ≤ 5 µM | – | Cc1cc(Nc2nccc(-c3ncc(C)s3)n2)[nH]n1 [Example I-151]
– | ≤ 5 µM | – | CC(=O)Nc1ccc(Nc2nccc(-c3ncc(C)s3)n2)cc1 [Example I-157]

SMILES | Ki [1] | Ki [2, 3] | Ki [2]
CCOP(=O)(Cc1ccc(Nc2nccc(-c3ncc(C)s3)n2)cc1)OCC [Example I-33] | – | – | ≤ 5 µM
